Data on two compounds can be found in patent US20030219785A1, “Targeted drug delivery methods” (Vanderbilt University, priority 2002, published 2003).

The test system of assay [1] is GL-261 tumors. As to the kind of experiment: Tumor volume assessment, GL-261. To be noted: group 3: cisplatin 0.08 mg tail vein days 1-4, no irradiation. The assay is classed as in vivo, mouse. The source says:
H460 cell line forms tumor in nude mice. […] Forty mice bearing GI-261 tumors on their right hind limbs were divided eight groups (five mice per group). An equal number of large and intermediate size (11-15 mm) tumors were present in each group. The first group received no treatment as the control group. The second group received radiation therapy (3 Gy×2 fractions) on days 1 and 3. Irradiated mice were immobilized in […] chambers and the entire body was shielded with lead, except for tumor bearing hind limb. The third group received 0.08 mg/100 μl of cisplatin (Sigma) in PBS by tail vein injection on days 1, 2, 3 and 4. The forth group received 0.5 mg of nanomag beads-10 μg of WGA-0.08 mg cisplatin cocktail in 100 μl PBS by tail vein injection on days 1, 2, 3 and 4. The fifth group received irradiation of 3 Gy on days 1 and 3 and the same treatments as group 3 after irradiation on days 1, 2, 3 and 4. […] Tumors volumes were measured 3 times weekly using skim calipers as described previously (see […]., et al., Nat. Med. 1:786-791 (1995); Hanson, et al., Radiation Research 142:281-287 (1995)) starting on day 1 and ending on the eighth measurement, or when the tumor volume reached 5 times that of the beginning volumes. Data was calculated as the percentage of original (day 1) tumor volume and graphed as fractional tumor volume+/-standard deviation (SD) for each treatment group. […]

The subject of assay [2] is H460 tumors. Briefly: Tumor volume assessment, H460. The assay is classed as in vivo, mouse. To be noted: irradiation 3 Gy x2 + cisplatin 0.08 mg days 1-4. As for the experimental part: H460 cell line forms tumor in nude mice. […] Twenty mice bearing H460 tumors with a range of 10-13 mm of diameter on their right hind limbs were divided into four groups (five mice per group). The first group received no treatment as the control group. The second group received radiation therapy (3 Gy×2 fraction) on days 1 and 3. The third group received radiation as […] and 0.08 mg/100 μl of cisplatin in PBS by tail vein injection after irradiation on days 1, 2, 3 and 4. The forth group received radiation as […] and 0.5 mg of nanomag beads-10 μg of WGA-0.08 mg of cisplatin cocktail in 100 μl PBS by tail vein injection after irradiation on days 1, 2, 3 and 4 with 15 minutes of magnetic force field after each time injection. Tumors volumes were measured 3 times weekly using skim calipers as described previously (see […]., et al., Nat. Med. 1:786-791 (1995); Hanson, et al., Radiation Research 142:281-287 (1995)) starting on day 1 and ending on the eighth measurement, or when the tumor volume reached 5 times that of the beginning volumes. Data was calculated as the percentage of original (day 1) tumor volume and graphed as fractional tumor volume+/-standard deviation (SD) for each treatment group. […]

In assay [3] the test system is inflamed irradiated vasculature of LLC tumor. Briefly: WGA-FITC binding in LLC tumor vascular window model. The assay is classed as in vivo, mouse. To be noted: LLC window irradiated 2.5 Gy vs 0 Gy; 100 μl WGA-FITC tail vein; pictures 60 min after injection.
The test system of assay [4] is endothelial cells of tumors. As to the kind of experiment: Electron microscopy of WGA binding. The assay is classed as in vivo.

Entries after “also recorded” stand apart in the source; their conditions may differ.

With `N.N.[Cl][Pt][Cl]` [cisplatin], the tumor growth delay in assay [1] lay within 3 to 4 days. The “delay of tumor growth” value in assay [2] stood at 11 days.

Take wheat germ agglutinin [WGA]: in assay [3], the “WGA-FITC binding to tumor vasculature” value was “efficiently and specifically bind; also recorded: much greater binding ability”. Besides, the “location of WGA binding” value in assay [4] was “most WGA binding was located at endothelial intercellular gaps”.
